Measurements reported in ChEMBL document CHEMBL1201862, “PubChem BioAssay data set” (2004).
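How tested: cells in 96-well plates exposed to compound for 48 hours at five concentrations. GI50: concentration for 50% inhibition of growth.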 The source made the active and inactive calls. No stated cut-off is given here; in the data, active = GI50 up to about 1.1 µM and inactive = higher.

Columns and labels:
Assay in all cases: DTP human tumour cell line panel, 48 h
[1] = test system: HL-60
[2] = test system: T47D
[3] = test system: HCT-15
[4] = test system: HCT-116
[5] = test system: OVCAR-4
[6] = test system: UACC-62
[7] = test system: SNB-75
[8] = test system: CAKI-1
[9] = test system: SR
[10] = test system: SN12C
[11] = test system: 786-0
[12] = test system: OVCAR-3
[13] = test system: HCC 2998
[14] = test system: ACHN
[15] = test system: SF-295
[16] = test system: NCI-H226
[17] = test system: PC-3
[18] = test system: OVCAR-5

SMILES | GI50 [1] | GI50 [2] | GI50 [3] | GI50 [4] | GI50 [5] | GI50 [6] | GI50 [7] | GI50 [8] | GI50 [9] | GI50 [10] | GI50 [11] | GI50 [12] | GI50 [13] | GI50 [14] | GI50 [15] | GI50 [16] | GI50 [17] | GI50 [18]
C[N+]1(C)CC=C(N2CCOCC2)CC1 | > 10 µM (inactive) | > 10 µM (inactive) | > 10 µM | > 10 µM (inactive) | > 10 µM (inactive) | > 10 µM (inactive) | > 10 µM (inactive) | > 10 µM (inactive) | > 10 µM (inactive) | > 10 µM (inactive) | > 10 µM (inactive) | > 10 µM (inactive) | > 10 µM (inactive) | > 10 µM (inactive) | > 10 µM (inactive) | > 10 µM (inactive) | > 10 µM (inactive) | –
COc1nc(C#CC2(O)CCCCC2)nc(OC)n1 | 2.64 µM (inactive) | 30.5 µM (inactive) | 2.69 µM | 9.4 µM (inactive) | 1.87 µM (inactive) | 6.55 µM (inactive) | 19.4 µM (inactive) | 4.19 µM (inactive) | 3.47 µM (inactive) | 12.4 µM (inactive) | 22.9 µM (inactive) | 8.15 µM (inactive) | – | 8.49 µM (inactive) | 18 µM (inactive) | – | 5.62 µM (inactive) | 12.7 µM (inactive)
Cc1nc(C)c(N2CCN(CN)CC2)c(O)n1 | > 100 µM (inactive) | > 100 µM (inactive) | > 100 µM | > 100 µM (inactive) | > 100 µM (inactive) | > 100 µM (inactive) | – | 8.15 µM (inactive) | > 100 µM (inactive) | > 100 µM (inactive) | 88.7 µM (inactive) | > 100 µM (inactive) | > 100 µM (inactive) | > 100 µM (inactive) | > 100 µM (inactive) | > 100 µM (inactive) | > 100 µM (inactive) | –
C=C1C(OC2O[C@@H]3O[C@@]4(C)CC[C@H]5[C@H](C)CC[C@@H](C2=C)[C@@]35O4)O[C@@H]2O[C@@]3(C)CC[C@H]4[C@H](C)CC[C@@H]1[C@@]24O3 (some centres undefined) | > 50 µM (inactive) | > 50 µM (inactive) | > 50 µM | > 50 µM (inactive) | > 50 µM (inactive) | > 50 µM (inactive) | – | > 50 µM (inactive) | > 50 µM (inactive) | > 50 µM (inactive) | > 50 µM (inactive) | > 50 µM (inactive) | > 50 µM (inactive) | > 50 µM (inactive) | > 50 µM (inactive) | > 50 µM (inactive) | > 50 µM (inactive) | > 50 µM (inactive)
NC(=O)NNc1nc2ccccc2c(=O)n1NC(=O)C(=O)Nc1ccc(Cl)cc1Cl | – | > 100 µM (inactive) | > 100 µM | > 100 µM (inactive) | > 100 µM (inactive) | > 100 µM (inactive) | > 100 µM (inactive) | > 100 µM (inactive) | 65.2 µM (inactive) | > 100 µM (inactive) | > 100 µM (inactive) | > 100 µM (inactive) | > 100 µM (inactive) | > 100 µM (inactive) | > 100 µM (inactive) | > 100 µM (inactive) | > 100 µM (inactive) | > 100 µM (inactive)
N=C1N(/N=C/c2ccccn2)/C(=N\c2ccccc2)C(=S)N1c1ccccc1 | 1.85 µM (inactive) | 5.5 µM (inactive) | 2.54 µM | 2.87 µM (inactive) | 11.7 µM (inactive) | 1.17 µM (inactive) | 15.3 µM (inactive) | 6.44 µM (inactive) | > 100 µM (inactive) | 5.31 µM (inactive) | 2.94 µM (inactive) | – | 10.2 µM (inactive) | 2.55 µM (inactive) | 5.81 µM (inactive) | 13.5 µM (inactive) | 3.57 µM (inactive) | 4.74 µM (inactive)
COc1cc(C2c3cccc4cccc(c34)C3CCC(=O)N32)cc(OC)c1O (centres undefined) | > 50 µM (inactive) | > 50 µM (inactive) | > 50 µM | > 50 µM (inactive) | > 50 µM (inactive) | > 50 µM (inactive) | > 50 µM (inactive) | – | > 50 µM (inactive) | > 50 µM (inactive) | > 50 µM (inactive) | > 50 µM (inactive) | – | > 50 µM (inactive) | > 50 µM (inactive) | > 50 µM (inactive) | > 50 µM (inactive) | > 50 µM (inactive)
Cc1nc(N)c(N2CCN(Cc3ccccc3)CC2)c(O)n1 | > 100 µM (inactive) | > 100 µM (inactive) | > 100 µM | > 100 µM (inactive) | – | – | – | – | > 100 µM (inactive) | > 100 µM (inactive) | > 100 µM (inactive) | > 100 µM (inactive) | > 100 µM (inactive) | > 100 µM (inactive) | > 100 µM (inactive) | > 100 µM (inactive) | > 100 µM (inactive) | > 100 µM (inactive)
C[N+]1(C)CCCC(C#N)(c2ccccc2)CC1 (centres undefined) | > 100 µM (inactive) | > 100 µM (inactive) | > 100 µM | > 100 µM (inactive) | > 100 µM (inactive) | – | > 100 µM (inactive) | > 100 µM (inactive) | > 100 µM (inactive) | – | > 100 µM (inactive) | – | > 100 µM (inactive) | > 100 µM (inactive) | > 100 µM (inactive) | – | > 100 µM (inactive) | > 100 µM (inactive)
